Experiments:
Assay type in all cases: in vivo, C57BL/6J mice
Fatty acid β-oxidation = Fatty acid β-oxidation activity in adipose tissue; details: FIG. 5A, epididymal white adipose tissue, HFD+5% w/w in diet, 16 weeks
Experimental: (§1) First, 4-week-old male C57BL/6J mice (60 total) were purchased from Jackson Laboratory. The animals were acclimated to the vivarium in a thermo-hygrostat (20-23° C., 45-65%) under a 12 h light/dark cycle and fed a pelletized commercial non-purified diet for 1 week after arrival. The mice were then randomly divided into 6 groups (n=10) and fed the respective experimental diets for 16 weeks: normal diet group (ND, American Institute of Nutrition (AIN)-76 semi-synthetic diet), high-fat diet group (HFD, 20% fat+1% cholesterol based on AIN-76 diet), PSI group (HFD+5% D-psicose, w/w, Sigma Chemical Company), ERY group (HFD+5% erythritol, w/w, Sigma Chemical Company), GLU group (HFD+5% D-glucose, w/w, Sigma Chemical Company), and FRU group (HFD+5% D-fructose, w/w, Sigma Chemical Company). All high-fat diet-fed groups were allowed to ingest the same calories by pair feeding based on the PSI group. The mice had ad libitum access to distilled water during the experimental period. Their feed intakes and body weights were measured daily and biweekly, respectively. The organ weights and the adipose tissue weights of the mice were measured after sacrificing the animals. Samples were prepared and analyzed according to the method developed by Hulcher and Oleson. Specifically, the activity of fatty acid synthase (FAS) as a lipid regulating enzyme of epididymal white adipose tissue was measured by spectrophotometric assay according to the method described by Nepokroeff et al. Each sample was mixed with 100 μl of cytoplasmic fraction and the mixture was allowed to react at 30° C. for 2 min. A reduction in absorbance at 340 nm was measured. FAS activity units were expressed as nanomoles (nmol) of NADPH oxidized for 1 min per mg of cytoplasmic fraction. Fatty acid β-oxidation activity was measured by monitoring the reduction of NAD^+ to NADH in the presence of palmitoyl-CoA, as described by Lazarow. β-oxidation activity units were expressed as nanomoles (nmol) of NADH produced for 1 min per mg of mitochondrial protein.

[1] = tested on: FATP4 (fatty acid transporter 4, 26569); assay: Small intestine mRNA expression, real-time quantitative PCR: FATP4; details: FIG. 8, HFD+5% w/w in diet, 16 weeks
Experimental: (§2) First, 4-week-old male C57BL/6J mice (60 total) were purchased from Jackson Laboratory. The animals were acclimated to the vivarium in a thermo-hygrostat (20-23° C., 45-65%) under a 12 h light/dark cycle and fed a pelletized commercial non-purified diet for 1 week after arrival. The mice were then randomly divided into 6 groups (n=10) and fed the respective experimental diets for 16 weeks: normal diet group (ND, American Institute of Nutrition (AIN)-76 semi-synthetic diet), high-fat diet group (HFD, 20% fat+1% cholesterol based on AIN-76 diet), PSI group (HFD+5% D-psicose, w/w, Sigma Chemical Company), ERY group (HFD+5% erythritol, w/w, Sigma Chemical Company), GLU group (HFD+5% D-glucose, w/w, Sigma Chemical Company), and FRU group (HFD+5% D-fructose, w/w, Sigma Chemical Company). All high-fat diet-fed groups were allowed to ingest the same calories by pair feeding based on the PSI group. The mice had ad libitum access to distilled water during the experimental period. Their feed intakes and body weights were measured daily and biweekly, respectively. The organ weights and the adipose tissue weights of the mice were measured after sacrificing the animals.
Samples were prepared and analyzed as previously described. Specifically, total RNA was synthesized into cDNA using a QuantiTect Reverse Transcription kit (QIAGEN Gmb1h, Hilden, Germany). RNA expression was quantified with real-time quantitative PCR using a QuantiTect SYBR Green PCR kit (QIAGEN Gmb1h, Hilden, Germany). Primers were designed to detect CD36 (cluster of differentiation 36, 12491), ApoB48 (apolipoprotein B 48, 238055), FATP4 (fatty acid transporter 4, 26569), ABCG5 (ATP-binding cassette sub-family G member5, 27409), and ABCG8 (ATP-binding cassette sub-family G member8, 67470). GAPDH was used as an internal transcription marker. The reaction was performed a total of 40 cycles (each consisting of 15 sec at 94° C., 30 sec at 58° C., 30 sec at 72° C., and 15 sec at 65° C.). Fluorescence signals were monitored every cycle and the resulting threshold cycles (Ct) were analyzed. mRNA expression in each experimental group was quantified using a CFX96 Real time system (Bio-rad, USA).

[2] = tested on: high-fat diet-induced obese mice; assay: Adipose tissue morphologies (epididymal WAT, H&E); details: FIG. 5B, 200×, HFD+5% w/w in diet, 16 weeks
Experimental: as §2
Epididymal WATs were removed from the mice in the normal diet group (ND) and high-fat diet groups (HFD, ERY, GLU, FRU, and PSI) and fixed in a buffer solution of 10% formalin. The fixed epididymal WATs were embedded in paraffin. […] sections were prepared from the epididymal WATs and their cross-sections were dyed with hematoxylin and eosin. Stained areas were observed using an optical microscope at a magnification of 200× (Nikon, Tokyo, Japan).

[3] = tested on: fatty acid synthase (FAS); assay: FAS activity in epididymal white adipose tissue; details: FIG. 5A, HFD+5% w/w in diet, 16 weeks
Experimental: as §1

Structure (SMILES)	fatty acid β-oxidation activity in adipose tissue (Fatty acid β-oxidation)	mRNA expression level of FATP4 in the small intestine [1]	mRNA expression level of FATP4 in the small intestine ([1]; listed as D-psicose)	size of adipocytes in the epididymal WATs [2]	FAS activity in adipose tissue [3]
O=C(CO)[C@H](O)[C@H](O)[C@H](O)CO [PSI, D-psicose]	increased significantly compared to those in other high-fat diet groups	significantly lower in the PSI group than those in other high-fat diet groups	reduces mRNA expression	relatively small compared to that in the other high-fat diet groups	decreased significantly compared to those in other high-fat diet groups
OC[C@@H](O)[C@@H](O)CO [ERY, erythritol]	decreased significantly compared to those in the ND group	significantly higher		increase in the size of adipocytes	increased significantly compared to those in the ND group
O=C(CO)[C@@H](O)[C@H](O)[C@H](O)CO [FRU, D-fructose]	decreased significantly compared to those in the ND group	significantly higher		increase in the size of adipocytes	increased significantly compared to those in the ND group
O=C[C@H](O)[C@@H](O)[C@H](O)[C@H](O)CO [GLU, D-glucose]	decreased significantly compared to those in the ND group	significantly higher		increase in the size of adipocytes	increased significantly compared to those in the ND group

— patent US20180243325A1, “METHOD FOR INHIBITING ABSORPTION OF AND/OR PROMOTING EXCRETION OF LIPIDS USING D-PSICOSE” (CJ CHEILJEDANG CORPORATION, priority 2015, published 2018)
